What was measured:
EphB4 and Crk1 = experiment: Phosphorylation of EphB4 and Crk1 in A2780cp20 cells (IP/immunoblot); assay type: cell-based, human
Description: FIGS. 2A-C: BIDEN-AP acts as an EphB4 agonist. (FIG. 2A) BIDEN-AP induced phosphorylation of EphB4 and the associated […] (Crk1). After 16 h serum starvation, A2780cp20 cells were incubated with EFNB2-Fc (20 nM), TNYL-RAW (SEQ ID NO: 12) (50 μM), or BIDEN-AP (50 μM) for 30 min or 2 h. The uncropped blots were available at Supplemental FIG. 11. (FIG. 2B) BIDEN-AP inhibited A2780cp20 cell invasion compared to untreated control (CTL). A modified Boyden transwell chamber coated with human defined matrigel was used. Experiments were performed in triplicate. Data are presented as mean±SD. ***p<0.001. (FIG. 2C) Alexa647-BIDEN-AP was internalized via receptor-mediated endocytosis. A2780cp20 cells were incubated at 37° C. with Alexa647-BIDEN-AP (0.05 μM), Alexa647-TNYL-RAW (SEQ ID NO: 12) (0.05 μM), or Alexa647-BIDEN-AP (0.05 μM) plus unlabeled TNYL-RAW (SEQ ID NO: 12) (5 μM, blocking). Alexa647-BIDEN-AP but not Alexa647-TNYL-RAW (SEQ ID NO: 12) was internalized into the A2780cp20 cells.
Total protein lysates were harvested and subjected to Nupage-SDS separation followed by immunoblotting. […] CTL, untreated control. The uncropped blots were available at Supplemental FIG. 11.
Immunoblotting, immunoprecipitation, and co-immunoprecipitation. […] The protein concentrations were determined by using a BCA Protein Assay Reagent kit (Pierce Biotechnology, Rockford, IL). […]

[1] = Particle size by transmission electron microscopy; assay type: physicochemical
Description: CCPM-BIDEN-AP conjugation. CCPM with amine functionalized surface was synthesized according to reported procedures (Koolpe et al., 2005). To introduce a maleimide group to the CCPM, an aliquot of N-(γ-maleimidobutyryloxy)-succinimide ester) (GMBS) in DMF ([…], 0.16 mmol) was added into the CCPM ([…], 2.6 nmol nanoparticles) in 1.2 mL of phosphate-buffered saline solution (PBS, pH 8). The mixture was stirred for 3 h at 37° C. The product was purified using a PD-10 column to remove unreacted GMBS. To introduce a sulfhydryl group to BIDEN-AP, the amino acid cysteine was conjugated to the N-terminal amine of BIDEN-AP. The resulting sulfhydryl-containing Cys-BIDEN-AP was mixed with 2 mL of a solution of CCPM-maleimide (0.16 mmol equivalent maleimide) in PBS with a 2:1 molar ratio of Cys-BIDEN-AP to maleimide groups (CCPM). […] The unreacted Cys-BIDEN-AP was quantified on an Agilent 1100 Series LC/MSD-TOF instrument equipped with a Vydac C18 column. The molar ratio of BIDEN-AP to CCPM was calculated on the basis of Cys-BIDEN-AP consumed (total Cys-BIDEN-AP minus remaining Cys-BIDEN-AP). The size of CCPM-BIDEN-AP was determined by transmission electron microscopy (TEM). […]

Bev-resistant RF24 cells = experiment: Cell death in bevacizumab-resistant RF24 cells (SYTOX-green flow cytometry); assay type: cell-based
Description: FIGS. 4A-D: BIDEN-AP-based agents inhibit microtubule formation and sensitizes resistant endothelial cells to anti-VEGF antibody. (FIG. 4A, FIG. 4B) Microtubule formation in RF24 cells treated with EFNB2-Fc (2 nM) or BIDEN-AP (15 μM) compared to untreated controls (CTL). Five images per well were taken at ×100 magnification. […] Representative plots from flow cytometry analysis with SYTOX-green are shown. […] Data are presented as mean±SD (n=6). *p<0.05, **p<0.01.
Given the important role of endothelium in adaptive changes with anti-angiogenic therapy (Bergers et al., 2008), we further tested the effects of BIDEN-AP in overcoming resistance to anti-VEGF therapy in RF24 cells. To do this, we first established a bevacizumab (Bev)-resistant RF24 cell line selected though continuous Bev treatment at low dose ([…]) for 2 weeks. The Bev-resistant RF24 cells were maintained at a Bev concentration of […]. Using flow cytometry with SYTOX-green staining, we quantified the live (SYTOX-negative) vs. dead (SYTOX-positive) populations after treatment with BIDEN-AP or CCPM-BIDEN-AP.

Substance: CCPM-BIDEN-AP: nano-conjugate of Cys-BIDEN-AP on core-crosslinked polymeric micelles via maleimide (GMBS) (CTNYLFSPNGPIARAW; D-residues)
- phosphorylation of EphB4 and Crk1 in vitro (EphB4 and Crk1): induce EphB4 and Crk1 phosphorylation
- mean diameter (TEM) [1]: 24±3 nm
- sensitization of Bev-resistant cells to Bev treatment (Bev-resistant RF24 cells): re-sensitized these cells to Bev treatment
